Reference: patent US20150239835A1, “COMPOSITION, SYNTHESIS, AND USE OF A NEW CLASS OF ISONITRILES” (DUQUESNE UNIVERSITY OF THE HOLY GHOST, priority 2014, published 2015)

Row | Structure (SMILES) | melting point [°C]
1 | [C-]#[N+]CSc1c(OC)cccc1OC [Example 16, (2,6-dimethoxyphenyl)(isocyanomethyl)sulfane] | 47 to 48
2 | [C-]#[N+]CSc1c(OC)cccc1C(F)(F)F [Example 17, 2-((Isocyanomethyl)sulfanyl)-1-methoxy-3-(trifluoromethyl)benzene] | 54 to 55
